Measured values: patent EP0254179A2, “Tetrahydrobenzothiazoloquinolines, their preparation and use” (BOEHRINGER INGELHEIM KG, priority 1986, dated 1988)

Test system: präsynaptischer Dopaminrezeptoren
Assay: Determination of dopamine utilisation after AMPT treatment (whole-brain dopamine by HPLC with electrochemical detection)
Format: in vivo, Ratten
Conditions: rats; 10 mg/kg s.c. at 0 and 2 hours; AMPT 250 mg/kg intraperitoneal; brains taken at 4 hours
Excerpt: (§1) Im Vergleich zu der bekannten racemischen Verbindung 6-Methyl-9-amino-5,6,6a,7-tetrahydro-4H-benzo[de]thiazolo[4,-5-g] chinolin wurden daher beispielsweise die Verbindungen ((-)-Enantiomere) • a= 9-Amino-5,6,6a,7-tetrahydro-4H-benzo[de]thiazolo[4,5-g] chinolin • b= 6-Ethyl-9-amino-5,6,6a,7-tetrahydro-4H-benzo[de]-thiazolo[4,5-g]chinolin. • c= 6-Propyl-9-amino-5,6,6a,7-tetrahydro-4H-benzo[de]-thiazolo[4,5-g]chinolin • d= 6-Methyl-9-benzylamino-5,6,6a,7-tetrahydro-4H-benzo[de]-thiazolo[4,5-g]chinolin • e= 6-Ethyl-9-methylamino-5,6,6a,7-tetrahydro-4H-benzo[de]-thiazolo[4,5-g]chinolin • f= 6-Ethyl-9-dimethylamino-5,6,6a,7-tetrahydro-4H-benzo[de]thiazolo[4,5-g]chinolin. hinsichtlich ihrer Beeinflussung präsynaptischer Dopaminrezeptoren untersucht, wobei zunächst die Wirkung auf die exploratorische Aktivität von Mäusen getestet und anschließend die Beeinflussung der Dopaminutilisation und der Dopaminsynthese an Ratten wie folgt bestimmt wurden:
Die Dopaminutilisation wurde an Ratten gemessen. Bei Tieren, die mit α-Methylparatyrosin (AMPT) (250 mg/kg intraperitoneal) behandelt werden, fällt die Dopaminkonzentration im Gesamthirn mit fortschreitender Versuchsdauer ab. Durch Substanzen, die an Autorezeptoren wirken, kann der Dopaminabfall (im Vergleich zu mit Kochsalzlösung behandelten Kontrolltieren) vermindert werden.
Die Testsubstanzen werden zum Zeitpunkt 0 und 2 Stunden des Experiments - soweit nicht anders angegeben - zur Erstellung einer Dosis-Wirkungskurve mit 0,01 bis 10 mg/kg s.c. appliziert. Zum Zeitpunkt 4 Stunden des Experiments werden die Tiere getötet und die Gehirne der Dopaminbestimmung mittels Hochdruckflüssigkeitchromatographie mit elektrochemischer Detektion zugeführt. Bestimmt wird die durch die Testsubstanz bewirkte prozentuelle Steigerung der Dopaminutilisation nach AMPT-Behandlung.

`CN1CCc2cccc3c2C1Cc1sc(N)nc1-3` (racemic) [Vergleich, 6-Methyl-9-amino-5,6,6a,7-tetrahydro-4H-benzo[de]thiazolo[4,5-g] chinolin, reference compound] was tested. Which “Prozentuale Steigerung der Dopaminutilisation” value did it give?
The value was 34%.

For `CCN1CCc2cccc3c2C1Cc1sc(N)nc1-3` (stereo not drawn) [b, 6-Ethyl-9-amino-5,6,6a,7-tetrahydro-4H-benzo[de]thiazolo[4,5-g]chinolin], which “Prozentuale Steigerung der Dopaminutilisation” value is on record?
Its value is 64%.

Which “Prozentuale Steigerung der Dopaminutilisation” value does the source give for `CCCN1CCc2cccc3c2C1Cc1sc(N)nc1-3` (stereo not drawn) [c, 6-Propyl-9-amino-5,6,6a,7-tetrahydro-4H-benzo[de]thiazolo[4,5-g]chinolin] here?
The value was 112%.

Test system: präsynaptischer Dopaminrezeptoren
Assay: Inhibition of exploratory activity (light-beam interruptions by groups of 5 mice)
Format: in vivo, Mäusen
Conditions: 10 mg/kg subcutaneous, measured 1 hour after injection over 5 minutes, versus saline controls
Excerpt: as §1
Die Aktititätsmessung erfolgte in Beobachtungskäfigen, die mit einer Infrarotlichtschranke versehen sind. Gemessen wird die Häufigkeit der Unterbrechung des Lichtstrahles durch eine Gruppe von 5 Mäusen innerhalb von 5 Minuten. Gruppen von jeweils 5 Tieren erhalten die zu untersuchende Substanz in einer Dosis von 10 mg/kg subkutan injiziert. 1 Stunde später werden die Tiere in die Beobachtungskäfige gebracht, wo sofort mit der Messung der exploratorischen Aktivität über 5 Minuten begonnen wird. Parallel bzw. alternierend zu Gruppen, die mit Testsubstanz behandelt wurden, werden kochsalzbehandelte Kontrollgruppen (o,9%ig; 0,1 ml/10 g Körpergewicht subkutan) untersucht.
Alle diejenigen Substanzen wurden in die weitere Versuchsreihe aufgenommen, die als Vorbedingung eine Hemmung der exploratorischen Aktivität gegenüber den Kontrolltieren von >50% aufwiesen, wie es beispielsweise für die oben näher bezeichneten Verbindungen a,b,c,d,e, und f nachzuweisen war.

`Nc1nc2c(s1)CC1NCCc3cccc-2c31` (stereo not drawn) [a, 9-Amino-5,6,6a,7-tetrahydro-4H-benzo[de]thiazolo[4,5-g] chinolin] was tested. Which “Hemmung der exploratorischen Aktivität gegenüber den Kontrolltieren” value did it give?
Its value is over 50%.

With `CCN1CCc2cccc3c2C1Cc1sc(N)nc1-3` (stereo not drawn) [b, 6-Ethyl-9-amino-5,6,6a,7-tetrahydro-4H-benzo[de]thiazolo[4,5-g]chinolin] as the compound, how does the “Hemmung der exploratorischen Aktivität gegenüber den Kontrolltieren” value read?
The value was over 50%.

`CCCN1CCc2cccc3c2C1Cc1sc(N)nc1-3` (stereo not drawn) [c, 6-Propyl-9-amino-5,6,6a,7-tetrahydro-4H-benzo[de]thiazolo[4,5-g]chinolin] was tested. Which “Hemmung der exploratorischen Aktivität gegenüber den Kontrolltieren” value did it give?
The value was over 50%.

For `CN1CCc2cccc3c2C1Cc1sc(NCc2ccccc2)nc1-3` (stereo not drawn) [d, 6-Methyl-9-benzylamino-5,6,6a,7-tetrahydro-4H-benzo[de]thiazolo[4,5-g]chinolin], which “Hemmung der exploratorischen Aktivität gegenüber den Kontrolltieren” value is on record?
The value was over 50%.

Which “Hemmung der exploratorischen Aktivität gegenüber den Kontrolltieren” value does the source give for `CCN1CCc2cccc3c2C1Cc1sc(NC)nc1-3` (stereo not drawn) [e, 6-Ethyl-9-methylamino-5,6,6a,7-tetrahydro-4H-benzo[de]thiazolo[4,5-g]chinolin] here?
Its value is over 50%.

How did the “Hemmung der exploratorischen Aktivität gegenüber den Kontrolltieren” value turn out when `CCN1CCc2cccc3c2C1Cc1sc(N(C)C)nc1-3` (stereo not drawn) [f, 6-Ethyl-9-dimethylamino-5,6,6a,7-tetrahydro-4H-benzo[de]thiazolo[4,5-g]chinolin] was run?
The value was over 50%.
